According to patent publication US11802120B2, “Fused cyclic urea derivatives as CRHR2 antagonist” (RaQualia Pharma Inc., priority 2018, dated 2023):
pIC50: −log10 of the molar value.

target: T1, human CRHR2-alpha (Homo sapiens, UniProt Q13324); assay: cAMP functional assay for human CRHR2 (LANCE Ultra cAMP, TR-FRET); assay type: cell-based; conditions: CHO-K1 cells expressing human CRHR2-alpha, agonist human urocortin2 at EC80, cAMP; read-out: IC50 against CRHR2
T1 sequence (Q13324 1-411): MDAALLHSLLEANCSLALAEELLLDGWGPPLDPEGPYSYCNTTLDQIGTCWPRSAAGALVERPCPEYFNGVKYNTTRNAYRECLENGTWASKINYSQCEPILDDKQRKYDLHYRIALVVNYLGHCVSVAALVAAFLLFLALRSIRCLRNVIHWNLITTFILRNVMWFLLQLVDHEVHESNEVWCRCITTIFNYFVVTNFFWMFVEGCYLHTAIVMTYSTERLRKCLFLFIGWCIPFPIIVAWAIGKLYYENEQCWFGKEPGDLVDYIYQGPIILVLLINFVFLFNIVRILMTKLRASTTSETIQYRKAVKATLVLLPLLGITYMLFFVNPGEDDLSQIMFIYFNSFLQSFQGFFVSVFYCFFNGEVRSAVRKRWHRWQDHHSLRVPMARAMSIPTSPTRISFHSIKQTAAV
In short: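 First, starved and frozen CHO-K1 cells expressing the receptor are thawed into IBMX-containing HBSS buffer (pH 7.4). Next, compounds are added for 30 min at 25° C. Then agonist at EC80 (urocortin2 or CRF, per receptor) is added for another 30 min, followed by cAMP detection reagents.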

Structure (SMILES)	pIC50
Cc1ncc(Cl)cc1C(=O)N[C@H]1CC[C@H](Cn2c(=O)n(Cc3cccc(C#N)c3)c3ccccc32)CC1 [Example 242, 5-chloro-N-((1r,4r)-4-((3-(3-cyanobenzyl)-2-oxo-2,3-dihydro-1H-benzo[d]imidazol-1-yl)methyl)cyclohexyl)-2-methylnicotinamide]	> 6.52
Cc1nccc(-n2c(=O)n(C[C@H]3CC[C@H](NC(=O)c4cc(Cl)cnc4C(F)F)CC3)c3ccccc32)c1C [Example 364, 5-chloro-2-(difluoromethyl)-N-((1r,4r)-4-((3-(2,3-dimethyl-pyridin-4-yl)-2-oxo-2,3-dihydro-1H-benzo[d]imidazol-1-yl)methyl)cyclohexyl)nicotinamide]	> 6.52
COC1CN(c2ccc(-n3c(=O)n(C[C@H]4CC[C@H](NC(=O)c5cc(Cl)cnc5C)CC4)c4ccccc43)cn2)C1 [Example 144, 5-chloro-N-((1r,4r)-4-((3-(6-(3-methoxyazetidin-1-yl)pyridin-3-yl)-2-oxo-2,3-dihydro-1H-benzo[d]imidazol-1-yl)methyl)cyclohexyl)-2-methylnicotinamide]	> 6.52
Cc1ncc(Cl)cc1C(=O)N[C@H]1CC[C@H](Cn2c(=O)n(-c3cnc4c(c3)OCC(=O)N4C)c3ccccc32)CC1 [Example 196, 5-chloro-2-methyl-N-((1r,4r)-4-((3-(4-methyl-3-oxo-3,4-dihydro-2H-pyrido[3,2-b][1,4]oxazin-7-yl)-2-oxo-2,3-dihydro-1H-benzo[d]imidazol-1-yl)methyl)cyclohexyl) nicotinamide]	> 6.52
Cc1ncc(Cl)cc1C(=O)N[C@H]1CC[C@H](Cn2c(=O)n(-c3ccc(-c4ccon4)cc3)c3ccccc32)CC1 [Example 445, 5-chloro-N-((1r,4r)-4-((3-(4-(isoxazol-3-yl)phenyl)-2-oxo-2,3-dihydro-1H-benzo[d]imidazol-1-yl)methyl)cyclo-hexyl)-2-methylnicotinamide]	> 6.52
O=C(N[C@H]1CC[C@H](Cn2c(=O)n(-c3ccc(N4CCCC4=O)cn3)c3ccccc32)CC1)c1cc(Cl)cnc1C(F)F [Example 767, 5-chloro-2-(difluoromethyl)-N-((1r,4r)-4-((2-oxo-3-(5-(2-oxopyrrolidin-1-yl)pyridin-2-yl)-2,3-dihydro-1H-benzo [d]imidazol-1-yl)methyl)cyclohexyl)nicotinamide]	> 6.52
O=C(N[C@H]1CC[C@H](Cn2c(=O)n(-c3cncc4ccccc34)c3ccccc32)CC1)c1cc(Cl)cnc1C(F)(F)F [Example 354, 5-chloro-N-((1r,4r)-4-((3-(isoquinolin-4-yl)-2-oxo-2,3-dihydro-1H-benzo[d]imidazol-1-yl)methyl)cyclo-hexyl)-2-(trifluoromethyl) nicotinamide]	> 6.52
C[C@@H](O)COc1ccc(-n2c(=O)n(C[C@H]3CC[C@H](NC(=O)c4cc(Cl)cnc4C(F)F)CC3)c3ccccc32)cn1 [Example 439, 5-chloro-2-(difluoromethyl)-N-((1R,4r)-4-((3-(6-((R)-2-hydroxypropoxy)pyridin-3-yl)-2-oxo-2,3-dihydro-1H-benzo[d]imidazol-1-yl)methyl)cyclohexyl)nicotinamide]	> 6.52
O=C(N[C@H]1CC[C@H](Cn2c(=O)n(-c3cnc4[nH]ccc4c3)c3ccccc32)CC1)c1cc(Cl)cnc1C(F)F [Example 455, 5-chloro-2-(difluoromethyl)-N-((1r,4r)-4-((2-oxo-3-(1H-pyrrolo[2,3-b]pyridin-5-yl)-2,3-dihydro-1H-benzo[d]imidazol-1-yl)methyl)cyclo-hexyl)nicotinamide]	> 6.52
CNc1cnc(-n2c(=O)n(C[C@H]3CC[C@H](NC(=O)c4cc(Cl)cnc4C(F)(F)F)CC3)c3ccccc32)cn1 [Example 298, 5-chloro-N-((1r,4r)-4-((3-(5-(methylamino)pyrazin-2-yl)-2-oxo-2,3-dihydro-1H-benzo[d]imidazol-1-yl)methyl)cyclo-hexyl)-2-(trifluoromethyl) nicotinamide]	> 6.52
CNC(=O)c1ccc(-n2c(=O)n(C[C@H]3CC[C@H](NC(=O)c4cc(Cl)cnc4CF)CC3)c3ccccc32)cn1 [Example 582, 5-(3-(((1r,4r)-4-(5-chloro-2-(fluoromethyl)nicotina-mido)cyclohexyl)methyl)-2-oxo-2,3-dihydro-1H-benzo[d]imidazol-1-yl)-N-methylpicolinamide]	> 6.52
O=C(N[C@H]1CC[C@H](Cn2c(=O)n(-c3cccc(N4CCNC4=O)n3)c3ccccc32)CC1)c1cc(Cl)cnc1C(F)F [Example 773, 5-chloro-2-(difluoromethyl)-N-((1r,4r)-4-((2-oxo-3-(6-(2-oxoimidazolidin-1-yl)pyridin-2-yl)-2,3-dihydro-1H-benzo [d]imidazol-1-yl)methyl)cyclo-hexyl)nicotinamide]	> 6.52
CC(C)Nc1ccc(-n2c(=O)n(C[C@H]3CC[C@H](NC(=O)c4cc(Cl)cnc4C(F)F)CC3)c3ccccc32)cn1 [Example 514, 5-chloro-2-(difluoromethyl)-N-((1r,4r)-4-((3-(6-(iso-propylamino)pyridin-3-yl)-2-oxo-2,3-dihydro-1H-benzo [d]imidazol-1-yl)methyl)cyclohexyl)nicotinamide]	> 6.52
Cc1ncc(Cl)cc1C(=O)N[C@H]1CC[C@H](Cn2c(=O)n(-c3ccc(OCCCO)nc3)c3ccccc32)CC1 [Example 134, 5-chloro-N-((1r,4r)-4-((3-(6-(3-hydroxypropoxy)pyridin-3-yl)-2-oxo-2,3-dihydro-1H-benzo[d]imidazol-1-yl)methyl)cyclohexyl)-2-methylnicotinamide]	> 6.52
Cn1cc(CCn2c(=O)n(C[C@H]3CC[C@H](NC(=O)c4cc(Cl)cnc4C(F)(F)F)CC3)c3ccccc32)cn1 [Example 303, 5-chloro-N-((1r,4r)-4-((3-(2-(1-methyl-1H-pyrazol-4-yl)ethyl)-2-oxo-2,3-dihydro-1H-benzo[d]imidazol-1-yl)methyl)cyclohexyl)-2-(trifluoromethyl)nicotinamide]	> 6.52
CCc1ccc(-n2c(=O)n(C[C@H]3CC[C@H](NC(=O)c4cc(Cl)cnc4C)CC3)c3ccccc32)cn1 [Example 72, 5-chloro-N-((1r,4r)-4-((3-(6-ethylpyridin-3-yl)-2-oxo-2,3-dihydro-1H-benzo[d]imidazol-1-yl)methyl)cyclohexyl)-2-methylnicotinamide]	> 6.52
Cc1ncc(Cl)cc1C(=O)N[C@H]1CC[C@H](Cn2c(=O)n(-c3ccc(C(=O)NCc4cocn4)nc3)c3ccccc32)CC1 [Example 179, 5-(3-(((1r,4r)-(5-chloro-2-methylnicotinamido)cyclo-hexyl)methyl)-2-oxo-2,3-dihydro-1H-benzo[d]imidazol-1-yl)-N-(oxazol-4-ylmethyl) picolinamide]	> 6.52
Cc1ncc(Cl)cc1C(=O)N[C@H]1CC[C@H](Cn2c(=O)n(-c3ccccc3C(F)(F)F)c3cccnc32)CC1 [Example 257, 5-chloro-2-methyl-N-((1r,4r)-4-((2-oxo-1-(2-(trifluoro-methyl)phenyl)-1H-imidazo [4,5-b]pyridin-3(2H)-yl)methyl)cyclohexyl)nicotinamide]	> 6.52
O=C(N[C@H]1CC[C@H](Cn2c(=O)n(-c3ccc4cnccc4c3)c3ccccc32)CC1)c1cc(Cl)cnc1C(F)(F)F [Example 398, 5-chloro-N-((1r,4r)-4-((3-(isoquinolin-6-yl)-2-oxo-2,3-dihydro-1H-benzo[d]imidazol-1-yl)methyl)cyclohexyl)-2-(trifluoromethyl)nicotinamide]	> 6.52
CC(=O)N1CCc2cc(-n3c(=O)n(C[C@H]4CC[C@H](NC(=O)c5cc(Cl)cnc5C)CC4)c4ccccc43)cnc21 [Example 155, N-((1r,4r)-4-((3-(1-acetyl-2,3-dihydro-1H-pyrrolo[2,3-b]pyridin-5-yl)-2-oxo-2,3-dihydro-1H-benzo[d]imidazol-1-yl)methyl)cyclohexyl)-5-chloro-2-methylnicotinamide]	> 6.52
O=C(N[C@H]1CC[C@H](Cn2c(=O)n(-c3ccc(Cl)cc3Cl)c3ncccc32)CC1)c1cc(Cl)cnc1C(F)F [Example 459, 5-chloro-N-((1r,4r)-4-((3-(2,4-dichlorophenyl)-2-oxo-2,3-dihydro-1H-imidazo[4,5-b]pyridin-1-yl)methyl)cyclo-hexyl)-2-(difluoromethyl) nicotinamide]	> 6.52
Cc1ncc(Cl)cc1C(=O)N[C@H]1CC[C@H](Cn2c(=O)n(-c3cncc(-c4cnn(C)c4)c3)c3ccccc32)CC1 [Example 679, 5-chloro-2-methyl-N-((1r,4r)-4-((3-(5-(1-methyl-1H-pyrazol-4-yl)pyridin-3-yl)-2-oxo-2,3-dihydro-1H-benzo[d]imidazol-1-yl)methyl)cyclohexyl) nicotinamide]	> 6.52
Cc1ncc(Cl)cc1C(=O)N[C@H]1CC[C@H](Cn2c(=O)n(-c3ccc(OC[C@@H](C)O)nc3)c3ccccc32)CC1 [Example 438, 5-chloro-N-((1R,4r)-4-((3-(6-((R)-2-hydroxypropoxy)pyridin-3-yl)-2-oxo-2,3-dihydro-1H-benzo[d]imidazol-1-yl)methyl)cyclohexyl)-2-methylnicotinamide]	> 6.52
CNc1ncc(-n2c(=O)n(C[C@H]3CC[C@H](NC(=O)c4cc(Cl)cnc4C)CC3)c3ccccc32)cc1F [Example 552, 5-chloro-N-((1r,4r)-4-((3-(5-fluoro-6-(methylamino)pyridin-3-yl)-2-oxo-2,3-dihydro-1H-benzo[d]imidazol-1-yl)methyl)cyclohexyl)-2-methylnicotinamide]	> 6.52
